This is an account of results in patent US5902726A, “Activators of the nuclear orphan receptor peroxisome proliferator-activated receptor gamma” (priority 1998, dated 1999).

Where two headings read alike, the source gives them in different places.

The target in data set [1] is T1, GAL4-PPARγ chimera (ligand-binding domain of the murine PPARγ) (Mus musculus, UniProt P37238).
T1 construct: transient in CV-1 cells with UAS-tk-SPAP reporter
T1 sequence (P37238 204-505): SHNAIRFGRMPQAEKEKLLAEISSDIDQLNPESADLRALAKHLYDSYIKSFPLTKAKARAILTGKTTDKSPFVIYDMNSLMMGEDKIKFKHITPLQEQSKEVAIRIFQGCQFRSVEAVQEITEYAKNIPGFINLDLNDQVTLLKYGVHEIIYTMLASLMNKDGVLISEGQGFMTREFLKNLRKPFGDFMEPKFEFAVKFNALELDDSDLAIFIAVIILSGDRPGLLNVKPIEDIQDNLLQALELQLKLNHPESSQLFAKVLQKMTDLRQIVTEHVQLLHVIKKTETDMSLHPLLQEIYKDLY
The data set can be described thus: Transient cotransfection assay: SPAP reporter. It is filed as cell-based. The note with it: for fold induction at 10 µM: read-out: Fold Activation. The source says: A transient cotransfection assay was used to screen for activators of PPARγ. As mammalian cell lines contain endogenous nuclear receptors that can complicate interpretation of the results, we used an established chimera system in which the ligand-binding domain of the murine PPARγ was fused to the DNA binding domain of the yeast transcription factor GAL4. The GAL4-PPARγ chimera was cotransfected into CV-1 cells with a reporter construct containing five copies of the GAL4 binding site upstream of the thymidine kinase promoter driving secreted placental alkaline phosphatase (SPAP) as reporter.
GAL4-PPAR chimeras and UAS-tk-CAT/SPAP reporters.
CV-1 cells were plated in DME medium supplemented with 10% delipidated fetal calf serum at a density of 2.4×10^4 cells per well in a 96-well plate (Costar) 16-24 h before transfection. In general, 8.0 ng of reporter plasmid, 25.0 ng of β-galactosidase expression vector (pCH110, Pharamacia), and 2.0 ng of GAL4-PPARγ expression vector were mixed with carrier DNA (pBluescript, Stratagene) to a total of 80 ng of DNA per well in a volume of 10 μl optiME medium (GIBCO BRL). To this, a second mix, containing 9.3 μl optiME medium and 0.7 μl of LIPOFECTAMINE™ (GIBCO BRL), was added. After 30 min. an additional 80 μl of optiME medium were added and the combined mix was then applied to the cells.

In a further data set the target is T2, GST-PPARγ LBD (Mus musculus, UniProt P37238).
T2 construct: cDNA encoding amino acids 174 to 475 of PPARg1; made in house; host or cells: E. coli BL21 (DE3)plysS, crude bacterial extract
T2 sequence (P37238 174-475 isoform P37238-2): T1 sequence (P37238 204-505)
The data set can be described thus: Saturation binding of radiolabeled ligand to GST-PPARγ LBD. Details: species or system murine. Conditions: for non-specific binding: 500-fold excess of nontritiated compound. The protocol:
(§1) To test for direct interactions between thiazolidinediones and PPARγ,the ligand binding domain of PPARγ was expressed in E. Coli as a fusion protein with glutathionine-S-transferase (GST-PPARγ LBD).
Bound was separated from free radioactivity by elution through 1 ml Sephadex G-25 desalting columns (Boehringer Mannheim). Bound radioactivity eluted in the column void volume and was quantitated by liquid scintillation counting.

Data set [2] deals with glutathione-S-transferase. Put plainly: Binding control in extracts from bacteria expressing glutathione-S-transferase. The note with it: extracts from bacteria expressing glutathione-S-transferase alone.
Text: as §1

The next data set has as its system pre-adipocyte cell lines. The note with it: cited from earlier work.
Data set [3] has as its system enhancer/promoter of the lipid-binding protein aP2. Conditions: Harris and Kletzien, 1994; cited from earlier work.
Where [4] appears, read: CV-1 cells, SPAP reporter, test compound at 10^-5 M, 24 h.

For the compound `CC1(C)CCC(C)(C)c2cc3ncc(-c4ccccc4C(=O)O)cc3cc21` [2-(6,6,9,9-tetramethyl-6,7,8,9-tterahydro-benzo[g]quinolin-3-yl)-benzoic acid], the fold induction at 10 µM in data set [1] (setting [4]) came to 25.9.

As to `CCCCc1nc(Cl)c(C(=O)NCC(=O)OCC)n1Cc1ccc2oc(-c3ccccc3C(=O)O)c(Br)c2c1` [2-[3-Bromo-5-(2-butyl-4-chloro-5-ethoxycarbonylmethylcarbamoyl-imidazol-1-ylmethyl)-benzofuran-2-yl]-benzoic acid], the fold induction at 10 µM in data set [1] (setting [4]) is 23.9.

As to `O=C1NC(=O)C(Cc2ccc3c(c2)CCC(Cc2ccccc2)O3)S1` (stereo not drawn) [5-(2-Benzyl-chroman-6-ylmethyl)-thiazolidine-2,4-dione], in data set [1] (setting [4]), the fold induction at 10 µM turned out to be 18.2.

Regarding `CC1(COc2ccc(CC3SC(=O)NC3=O)cc2)CCCCC1` (stereo not drawn) [5-[4-(1-methyl-cyclohexylmethoxy)-benzyl)-thiazolidine-2,4-dione], the fold induction at 10 µM in data set [1] (setting [4]) is 46.1.

Turning to `CCCCCC(O)C=CC1C(O)CC2CC(=CCCCC(=O)O)CC21` (stereo not drawn) [5-[5-Hydroxy-4-(3-hydroxy-oct-1-enyl)-hexahydro-pentalen-2-ylidene]-pentanoic acid], in data set [1] (CV-1, 24 h), the fold induction at 10 µM was found to be 19.6.

As for `CN(CCOc1ccc(CC2SC(=O)NC2=O)cc1)c1ccccn1` (stereo not drawn) [5-{4-[2-(Methyl-pyridine-2-yl-amino)-ethoxy]-benzyl}-thiazolidine-2,4-dione], at GST-PPARγ LBD (at 100 nM tritiated ligand), the Specific binding is 13,500 dpm and the non-specific binding is on record as 1,700 dpm. Besides, at GST-PPARγ LBD (at 200 nM tritiated ligand), the Specific binding is on record as 14,500 dpm and the non-specific binding was 1,900 dpm. Further, the Binding result in data set [2] is reported as “No binding was detected”.

With `CCCCCC(O)C=CC1C(=O)CC(O)C1CC=CCCCC(=O)O` (stereo not drawn) [7-[5-Hydroxy-2-(3-hydroxy-oct-1-enyl)-3-oxo-cyclopentyl]-hept-5-enoic acid], the fold induction at 10 µM in data set [1] (setting [4]) is 23.8.

For the compound `CCCCCC(=O)C=CC1C(O)CC(=O)C1CCCCCCC(=O)O` (stereo not drawn) [7-[43-Hydroxy-5-oxo-2-(3-oxo-oct-1-enyl)-cyclopentyl]-heptanoic acid], the “Fold Activation” value in data set [1] (CV-1 cells, SPAP reporter, test compound at 10^-5 M, 24 h, 10 µM) is listed as 25.6.

Regarding `CCCCCC(C)c1ccc(C2=CCCC2CCCCCCC(=O)O)cc1` (stereo not drawn) [7-{2-[4-(1-Methyl-hexyl)-phenyl]-cyclopent-2-enyl}-heptanoic acid], the fold induction at 10 µM in data set [1] (setting [4]) is 27.

In the case of `O=C(O)CCCCCCC1=C(c2ccc(C(O)C3CCCC3)cc2)CCC1=O` (stereo not drawn) [7-{2-[4-(Cyclopentyl-hydroxy-methyl)-phenyl]-5-oxo-cyclopent-1-enyl}-heptanoic acid], in data set [1] (setting [4]), the fold induction at 10 µM was determined as 24.6.

Turning to `CC(C)Oc1cc(CCCCC(=O)O)c(C=CC(=O)CCCCCC(=O)O)c(OC(C)C)c1` [9-[2-(4-Carboxy-butyl)-4,6-diisopropoxy-phenyl]-7-oxo-non-8-enoic acid], the fold induction at 10 µM in data set [1] (setting [4]) was 11.3.

On to `CCCc1c(-c2ccccc2)[nH]c2ccc(CC(=O)O)cc12` [(2-Phenyl-3-propyl-1H-indol-5-yl)-acetic acid], for which the fold induction at 10 µM in data set [1] (setting [4]) is 21.7.

Turning to `O=C(O)Cc1ccc2[nH]c(-c3ccccc3)c(CCc3ccccc3)c2c1` [(3-phenethyl-2-phenyl-1H-indol-5-yl)-acetic acid], the fold induction at 10 µM in data set [1] (setting [4]) was 21.2.

Regarding `CN(C)c1ccc(Cc2ccc(N(C)C)cc2CC(=O)O)cc1` [[5-Dimethylamino-2-(4-dimethylamino-benzyl)-phenyl]-acetic acid], the fold induction at 10 µM in data set [1] (setting [4]) turned out to be 17.8.

Turning to `CCc1ccc(CCOc2ccc(CC3SC(=O)NC3=O)cc2)nc1` (stereo not drawn) [pioglitazone], in the data set on pre-adipocyte cell lines, the “Expression of adipocyte-specific genes aP2 and adipsin and glucose transporter proteins GLUT-1 and GLUT-4” value is recorded as “increased expression”. The “Expression of chimeric aP2 enhancer/promoter CAT reporter gene” value in data set [3] is “stimulate expression”.

`Cc1cccc(Nc2cc(Cl)nc(SCC(=O)O)n2)c1C` [{4-Chloro-6-(2,3-dimethyl-phenylamino)-pyrimidin-2-ylsulfanyl}-acetic acid]: the fold induction at 10 µM in data set [1] (setting [4]) was 25.7.
